Data as given in patent US10913710B2, “Benzene disulfonamide for the treatment of cancer” (priority 2017, dated 2021).

Assays:
[1] = tested on: human peripheral blood mononuclear cells (hPMPBC); experiment: Cytotoxicity assay with human peripheral blood mononuclear cells; type: cell-based
Procedure: Cells were incubated with test substances at titrated concentrations ranging between 30 μM and 1.7 nM for 72 h. After the incubation period, the cells were fixed with 10% (wt/vol) trichloroacetic acid and stained for 30 min with sulforhodamine B (SRB) staining solution prior to removing unbound dye by washing repeatedly with 1% (vol/vol) acetic acid. The protein-bound dye is dissolved in 10 mM Tris base solution for OD (optical density) determination at 510 nm using a microplate reader.

in vitro = conditions: human, Caco-2, pH 6.5
Procedure: (§1) Caco-2 Permeability Assay:
(§2) The compound concentration was measured in the receiver as well as the donor well.

PDEδ [2] = biological target: T1, PDEδ (Homo sapiens (Human), UniProt O43924); experiment: Fluorescence polarization competition binding assay: displacement titration of labeled Atorvastatin probe for KD; conditions: fluorescence polarization assay; activity classes; read-out: KD
Procedure: Example D.2: Displacement Titrations of Labeled Atorvastatin-Probe for the Determination of KD Values
Displacement Titrations of Labeled Atorvastatin-Probe for the Determination of KD Values:
The purification was followed by size exclusion gel filtration on a Superdex 75 S26/60 column using buffer A (25 mM Tris-HCl, pH 7.5, 150 mM NaCl and 3 mM DTE).

[3] = biological target: interaction between mCherry-PDE6δ and mCitrine-RheB (Homo sapiens (Human), UniProt O43924); experiment: FLIM-FRET of mCitrine-RheB and mCherry-PDE6δ interaction in living MDCK cells; type: cell-based; conditions: fit of dose-response of interacting fraction α, ± s.e.m., read-out: apparent "in-cell" KD
[4] = tested on: mCitrine-KRas in MiaPaCa-2 cells; experiment: KRas localization analysis by confocal microscopy; type: cell-based, human; conditions: 5 μM; MiaPaCa-2 cells ectopically expressing mCitrine-KRas
Procedure: Panc-TU-1, MiaPaCa-2, PANC-1 and BxPC-3 cell lines were cultured in DMEM supplemented with 10% fetal calf serum, 1% L-glutamine (PAN-Biotech) and 1% non-essential amino acids (PAN-Biotech). The cells were maintained in a humidified incubator at 37° C. and 5% CO2. For microscopy, cells were seeded in four-well Lab-Tek chambers (Thermo Scientific) in DMEM without phenol red, supplemented with 25 mM HEPES. Transfection was performed with either Effectene (Qiagen) or Lipofectamine 2000 (Invitrogen). Confocal images were acquired with a confocal laser-scanning microscope (FV1000, Olympus). For detection of mCitrine-RheB and mCitrine-KRas, the sample was excited using the 488 nm wavelength of an argon laser. Fluorescence signal was collected through an oil immersion objective (×60/1.35 UPlanSApo, Olympus) and spectrally filtered by a band pass filter from 500 nm to 550 nm. For detection of mCherry-PDEδ, a 561 nm diode laser was used for excitation. The fluorescence emission was spectrally filtered by a band pass filter from 600 to 700 nm. Confocal images of cells were segmented into plasma membrane and cytoplasm whereby the plasma membrane segment contained one third of all pixels. The mean intensity of plasma membrane and cytoplasm were normalized to the total mean intensity of each cell at each time point (FIG. 4C).

MiaPaCa-2 cells = experiment: Real time cell analysis (RTCA) proliferation; type: cell-based, human
Procedure: (§3) Panc-TU-1, MiaPaCa-2, PANC-1 and BxPC-3 cell lines were cultured in DMEM supplemented with 10% fetal calf serum, 1% L-glutamine (PAN-Biotech) and 1% non-essential amino acids (PAN-Biotech). The cells were maintained in a humidified incubator at 37° C. and 5% CO2. For microscopy, cells were seeded in four-well Lab-Tek chambers (Thermo Scientific) in DMEM without phenol red, supplemented with 25 mM HEPES. Transfection was performed with either Effectene (Qiagen) or Lipofectamine 2000 (Invitrogen). RTCA measurements of Panc-TU-1, MiaPaCa-2, PANG-1 and BxPC-3 cell lines were performed on a Dual Plate xCELLigence instrument (Roche Applied Science, Indianapolis, Ind.). This device measures a dimensionless cell index which is based on impedance. […] After seeding, cells were allowed to settle for 15 min at room temperature before insertion into the xCELLigence instrument in a humidified incubator at 37° C. with 5% CO2. […] The impedance was measured in 15 min intervals for up to 100 h. Assays were performed in triplicates, each containing two technical duplicates. The cell index was normalized to 1 at the time point of drug administration.

Panc-Tu-I cells = experiment: Real time cell analysis (RTCA) proliferation; type: cell-based, human
Procedure: as §3

[5] = tested on: colorectal cancer cell lines DiFi, HCT-116, Hke3, Hkh2, HT29 and SW480; experiment: Real time cell analysis (RTCA) proliferation of colorectal cancer cell lines; type: cell-based, human
[6] = tested on: colorectal cancer cell lines (HCT-116, Hke3, SW480, Hkh2, DiFi, HT29); experiment: Apoptosis / cell viability assay (7-AAD staining, flow cytometry); type: cell-based, human; conditions: all tested cell lines (Hkh2, DiFi, HT29)
Procedure: Apoptosis assays are performed on a LSR II flow cytometer (BD Bio-science). For this, cells are seeded in 6-well plates with an amount of 2×10^5 cells per well. Cells are treated with different concentrations of compound 19 (Deltasonamide 2) for 24 h. DMSO is used as a control. Subsequently, the supernatant is collected in FACS vials and the cells are washed with 1 mL PBS. Afterwards, cells are detached with 0.5 mL Accutase™ (EMD Millipore Corporation). The detached cells are resuspended in 1 mL PBS and transferred to the respective FACS vials. The vials are centrifuged at 200 g for 5 min. The supernatant is discarded and the cells are washed twice with PBS. Cell pellets are re-suspended in 100 μL PBS containing 5 μL of 7-AAD. Samples are vortexed and incubated in the dark at RT for 15 min. Afterwards, 200 μL PBS are added and the samples are transferred to fresh FACS vials through filter lids. The samples are measured within one hour after transfer using 488 nm as excitation wave length and the emission filter 695/40. The measurements are acquired and gated with the BD FACSDiva™ software.

PDEδ [7] = biological target: T1, PDEδ; experiment: Cellular thermal shift assay / thermal protein profiling in Jurkat cell lysate; conditions: 1 μM
[8] = biological target: RPL31 (Ribosomal Protein L31) (Homo sapiens (Human), UniProt P62899); experiment: as above; conditions: read-out: shift in melting temperature
Caco-2 cells = experiment: in vitro; conditions: 10 μM, 2 hours, 37° C.
Procedure: as §1, §2

[9] = even at submicromolar concentrations

SMILES	Papp A→B at 2 h, 10 µM (in vitro)	Papp B→A at 2 h, 10 µM (in vitro)	Kd (PDEδ [2])	efflux ratio at 2 h, 10 μM (in vitro)	further results
Nc1cc(CN(CC2CCNCC2)S(=O)(=O)c2ccc(S(=O)(=O)N(Cc3ccc(Cl)cc3)C3CCCC3)cc2)ccc1C(=O)O [Compound 22, 2-amino-4-(((4-(N-(4-chlorobenzyl)-N-cyclopentylsulfamoyl)-N-(piperidin-4-ylmethyl)phenyl)sulfonamido)methyl)benzoic Acid]	9 nm/s	6 nm/s	0.001 to 0.03 µM	0.6	selectivity of protein engagement (only PDE6δ and RPL31 engaged) (PDEδ [7]; 5492 proteins identified): very selective inhibitor; higher signal intensities of soluble PDEδ compared to DMSO controls (PDEδ [7]; […]): 26-28%; ΔTm at 1 µM [8]: 3 °C
c1ccc(Cn2c(-c3ccc(OC[C@H](C4CCNCC4)n4c(-c5ccccc5)nc5ccccc54)cc3)nc3ccccc32)cc1 [Deltarasin, reference compound]	–	–	–	–	Caco-2 pH 6.5/7.4 Papp A→B Arith. Mean (Caco-2 cells): 1.0 10^−6 cm/s; Caco-2 pH 6.5/7.4 Papp B→A Arith. Mean (Caco-2 cells): 5.1 10^−6 cm/s
Cc1ccc(-n2nc3c(=O)n(CCCC(=O)NCC(C)c4ccccc4)nc(C)c3c2C)cc1 (stereo not drawn) [Deltazinone 1, reference compound]	–	–	–	–	Caco-2 pH 6.5/7.4 Papp A→B Arith. Mean (Caco-2 cells): 41.1 10^−6 cm/s; Caco-2 pH 6.5/7.4 Papp B→A Arith. Mean (Caco-2 cells): 25.1 10^−6 cm/s

Now from value to compound, other results behind:

Papp A→B at 2 h, 10 µM (in vitro)	Papp B→A at 2 h, 10 µM (in vitro)	Kd (PDEδ [2])	efflux ratio at 2 h, 10 μM (in vitro)	SMILES	further results
16 nm/s	137 nm/s	–	–	CNc1nccc(CN(CC2CCNCC2)S(=O)(=O)c2ccc(S(=O)(=O)N(Cc3ccc(Cl)cc3)C3CCCC3)cc2)n1 [Compound 16, N1-(4-Chlorobenzyl)-N1-cyclopentyl-N4-((2-(methylamino)pyrimidin-4-yl)methyl)-N4-(piperidin-4-ylmethyl)benzene-1,4-disulfonamide]	concentration up to which hPMBCs proliferation is not impaired [1]: ≥ 30 µM
9 nm/s	27 nm/s	0.001 to 0.03 µM	2.9	CNc1nccc(CN([C@H]2CC[C@H](N)CC2)S(=O)(=O)c2ccc(S(=O)(=O)N(Cc3ccc(Cl)cc3)C3CCCC3)cc2)n1 [Compound 19, N1-((trans)-4-aminocyclohexyl)-N4-(4-chlorobenzyl)-N4-cyclopentyl-N1-((2-(methylamino)pyrimidin-4-yl)methyl)benzene-1,4-disulfonamide]	Kd [3]: 0.061 ± 0.005 µM; KRas plasma membrane localization [4]: loss of KRas plasma membrane (PM) localization; reduction of growth rate (MiaPaCa-2 cells; at 750 nM): about 50%; proliferation (RTCA) (MiaPaCa-2 cells; [9]): strongly reduced proliferation; reduction of growth (Panc-Tu-I cells; at 1.5 μM): about 50%; proliferation (RTCA) (Panc-Tu-I cells; [9]): strongly reduced proliferation; proliferation (RTCA) ([5]; DiFi, HCT-116, Hke3, Hkh2, HT29 and SW480, even at lower micromolar concentrations): strongly reduced proliferation; concentrations showing growth inhibitory effect and reduced cell viability ([5]; cell lines containing oncogenic KRas mutations (HCT-116, Hke3, and SW480)): 1.5 to 3 µM; concentration showing unspecific toxicity [6]: above 6 μM; concentration up to which hPMBCs proliferation is not impaired [1]: ≥ 30 µM
4 nm/s	5 nm/s	0.001 to 0.03 µM	1.1	CNc1cc(CN(CC2CCNCC2)S(=O)(=O)c2ccc(S(=O)(=O)N(Cc3ccc(Cl)cc3)C3CCCC3)cc2)ccc1C(=O)O [Compound 21, 4-(((4-(N-(4-chlorobenzyl)-N-cyclopentylsulfamoyl)-N-(piperidin-4-ylmethyl)phenyl)sulfonamido)methyl)-2-(methylamino)benzoic Acid]	–
6 nm/s	6 nm/s	0.001 to 0.03 µM	0.9	O=S(=O)(c1ccc(S(=O)(=O)N(Cc2ccc(Cl)cc2)C2CCCC2)cc1)N(Cc1ccccc1)CC1CCNCC1 [Compound 44, N1-Benzyl-N4-(4-chlorobenzyl)-N4-cyclopentyl-N1-(piperidin-4-ylmethyl)benzene-1,4-disulfonamide]	–
